Laboratory results reported in PMC9186362, “Design and biological evaluation of substituted 5,7-dihydro-6H-indolo[2,3-c]quinolin-6-one as novel selective Haspin inhibitors” (Journal of Enzyme Inhibition and Medicinal Chemistry, 2022).

Tests used:
Assay in all cases: LanthaScreen Binding - Eu-anti-GST
RAF1 (cRAF) Y340D Y341D = biological target: T1, RAF1 (cRAF) Y340D Y341D (Homo sapiens, UniProt P04049, Y340D/Y341D); conditions: read-out: Percentage of inhibition
T1 construct: purchased Life Technologies
Procedure: (§1) We further evaluated the selectivity profile of compound 55 on a larger panel of kinases (SelectScreen Whole Panel, Life Technologies). The inhibition profile of 55, evaluated at 1 μM, is depicted on a dendrogram on Figure 3 where kinases inhibited by a minimum of 80% are shown. A full list of the kinases tested is shown on Table S1 in supplementary information.

CASK = biological target: T2, CASK (Homo sapiens, UniProt O14936); conditions: read-out: Percentage of inhibition
T2 construct: purchased Life Technologies (SelectScreen Whole Panel)
Procedure: as §1

TTK = biological target: T3, TTK (Homo sapiens, UniProt P33981); conditions: read-out: Percentage of inhibition
T3 construct: purchased Life Technologies
Procedure: as §1

CDK2/cyclin A1 = biological target: T4, CDK2/cyclin A1 (Homo sapiens, UniProt P24941); conditions: read-out: Percentage of inhibition
T4 construct: purchased Life Technologies (SelectScreen Whole Panel service)
Procedure: as §1

ALK L1196M = biological target: T5, ALK L1196M (Homo sapiens, UniProt Q9UM73, L1196M); conditions: read-out: Percentage of inhibition
T5 construct: purchased Life Technologies (SelectScreen Whole Panel service)
Procedure: as §1

KIT Y823D = biological target: T6, KIT Y823D (Homo sapiens, UniProt P10721, Y823D); conditions: read-out: Percentage of inhibition
T6 construct: purchased Life Technologies
Procedure: as §1

ALK T1151_L1152insT = biological target: T7, ALK T1151_L1152insT (Homo sapiens, UniProt Q9UM73, INS1151T); conditions: read-out: Percentage of inhibition
T7 construct: purchased Life Technologies
Procedure: as §1

SIK1 = biological target: T8, SIK1 (Homo sapiens, UniProt P57059); conditions: read-out: Percentage of inhibition
T8 construct: purchased Life Technologies (SelectScreen Whole Panel service)
Procedure: as §1

CDK11 (Inactive) = CDK11 (Inactive) (Homo sapiens, UniProt Q9BWU1); conditions: read-out: Percentage of inhibition
Procedure: as §1

EIF2AK2 (PKR) = biological target: T9, EIF2AK2 (PKR) (Homo sapiens, UniProt P19525); conditions: read-out: Percentage of inhibition
T9 construct: purchased Life Technologies (SelectScreen service)
Procedure: as §1

CDK9 (Inactive) = CDK9 (Inactive) (Homo sapiens, UniProt P50750); conditions: read-out: Percentage of inhibition
Procedure: as §1

STK32B (YANK2) = STK32B (YANK2) (Homo sapiens, UniProt Q9NY57); conditions: read-out: Percentage of inhibition
Procedure: as §1

HUNK = HUNK (Homo sapiens, UniProt P57058); conditions: read-out: Percentage of inhibition
Procedure: as §1

PKMYT1 = PKMYT1 (Homo sapiens, UniProt Q99640); conditions: read-out: Percentage of inhibition
Procedure: as §1

TLK1 = TLK1 (Homo sapiens, UniProt Q9UKI8); conditions: read-out: Percentage of inhibition
Procedure: as §1

ICK = ICK (Homo sapiens, UniProt Q9UPZ9); conditions: read-out: Percentage of inhibition
Procedure: as §1

EPHA6 = EPHA6 (Homo sapiens, UniProt Q9UF33); conditions: read-out: Percentage of inhibition
Procedure: as §1

PLK4 = biological target: T10, PLK4 (Homo sapiens, UniProt O00444); conditions: read-out: Percentage of inhibition
T10 construct: purchased Life Technologies (SelectScreen Whole Panel)
Procedure: as §1

ALK C1156Y = biological target: T11, ALK C1156Y (Homo sapiens, UniProt Q9UM73, C1156Y); conditions: read-out: Percentage of inhibition
T11 construct: purchased Life Technologies
Procedure: as §1

CDK2/cyclin O = CDK2/cyclin O (Homo sapiens, UniProt P24941); conditions: read-out: Percentage of inhibition
Procedure: as §1

NEK8 = biological target: T12, NEK8 (Homo sapiens, UniProt Q86SG6); conditions: read-out: Percentage of inhibition
T12 construct: purchased Life Technologies (SelectScreen Whole Panel service)
Procedure: as §1

STK38 (NDR) = biological target: T13, STK38 (NDR) (Homo sapiens, UniProt Q15208); conditions: read-out: Percentage of inhibition
T13 construct: purchased Life Technologies (SelectScreen Whole Panel service)
Procedure: as §1

CDK14 (PFTK1)/cyclin Y = biological target: T14, CDK14 (PFTK1)/cyclin Y (Homo sapiens, UniProt O94921); conditions: read-out: Percentage of inhibition
T14 construct: purchased Life Technologies
Procedure: as §1

BRAF = biological target: T15, BRAF (Homo sapiens, UniProt P15056); conditions: read-out: Percentage of inhibition
T15 construct: purchased Life Technologies (SelectScreen Whole Panel)
Procedure: as §1

KIT N822K = biological target: T16, KIT N822K (Homo sapiens, UniProt P10721, N822K); conditions: read-out: Percentage of inhibition
T16 construct: purchased Life Technologies (SelectScreen Whole Panel service)
Procedure: as §1

ALK R1275Q = biological target: T17, ALK R1275Q (Homo sapiens, UniProt Q9UM73, R1275Q); conditions: read-out: Percentage of inhibition
T17 construct: purchased Life Technologies (SelectScreen service)
Procedure: as §1

STK38L (NDR2) = biological target: T18, STK38L (NDR2) (Homo sapiens, UniProt Q9Y2H1); conditions: read-out: Percentage of inhibition
T18 construct: purchased Life Technologies (SelectScreen)
Procedure: as §1

TGFBR2 = biological target: T19, TGFBR2 (Homo sapiens, UniProt P37173); conditions: read-out: Percentage of inhibition
T19 construct: purchased Life Technologies (SelectScreen Whole Panel)
Procedure: as §1

STK17A (DRAK1) = biological target: T20, STK17A (DRAK1) (Homo sapiens, UniProt Q9UEE5); conditions: read-out: Percentage of inhibition
T20 construct: purchased Life Technologies
Procedure: as §1

VRK2 = biological target: T21, VRK2 (Homo sapiens, UniProt Q86Y07); conditions: read-out: Percentage of inhibition
T21 construct: purchased Life Technologies (SelectScreen Whole Panel)
Procedure: as §1

MKNK2 (MNK2) = MKNK2 (MNK2) (Homo sapiens, UniProt Q9HBH9); conditions: read-out: Percentage of inhibition
Procedure: as §1

ACVR1 (ALK2) = biological target: T22, ACVR1 (ALK2) (Homo sapiens, UniProt Q04771); conditions: read-out: Percentage of inhibition
T22 construct: purchased Life Technologies (SelectScreen Whole Panel service)
Procedure: as §1

DDR2 T654M = biological target: T23, DDR2 T654M (Homo sapiens, UniProt Q16832, T654M); conditions: read-out: Percentage of inhibition
T23 construct: purchased Life Technologies (SelectScreen service)
Procedure: as §1

ABL1 M351T = ABL1 M351T (Homo sapiens, UniProt P00519, M351T); conditions: read-out: Percentage of inhibition
Procedure: as §1

KIT V559D T670I = biological target: T24, KIT V559D T670I (Homo sapiens, UniProt P10721, T670I/V559D); conditions: read-out: Percentage of inhibition
T24 construct: purchased Life Technologies
Procedure: as §1

ACVR2A = biological target: T25, ACVR2A (Homo sapiens, UniProt P27037); conditions: read-out: Percentage of inhibition
T25 construct: purchased Life Technologies (SelectScreen)
Procedure: as §1

MLK4 = biological target: T26, MLK4 (Homo sapiens, UniProt Q5TCX8); conditions: read-out: Percentage of inhibition
T26 construct: purchased Life Technologies (SelectScreen Whole Panel service)
Procedure: as §1

FLT3 ITD = conditions: 1 µM
Procedure: as §1

PRKACB (PRKAC beta) = biological target: T27, PRKACB (PRKAC beta) (Homo sapiens, UniProt P22694); conditions: read-out: Percentage of inhibition
T27 construct: purchased Life Technologies
Procedure: as §1

DYRK2 = biological target: T28, DYRK2 (Homo sapiens, UniProt Q92630); conditions: read-out: Percentage of inhibition
T28 construct: purchased Life Technologies
Procedure: as §1

T9 sequence (P19525 whole entry): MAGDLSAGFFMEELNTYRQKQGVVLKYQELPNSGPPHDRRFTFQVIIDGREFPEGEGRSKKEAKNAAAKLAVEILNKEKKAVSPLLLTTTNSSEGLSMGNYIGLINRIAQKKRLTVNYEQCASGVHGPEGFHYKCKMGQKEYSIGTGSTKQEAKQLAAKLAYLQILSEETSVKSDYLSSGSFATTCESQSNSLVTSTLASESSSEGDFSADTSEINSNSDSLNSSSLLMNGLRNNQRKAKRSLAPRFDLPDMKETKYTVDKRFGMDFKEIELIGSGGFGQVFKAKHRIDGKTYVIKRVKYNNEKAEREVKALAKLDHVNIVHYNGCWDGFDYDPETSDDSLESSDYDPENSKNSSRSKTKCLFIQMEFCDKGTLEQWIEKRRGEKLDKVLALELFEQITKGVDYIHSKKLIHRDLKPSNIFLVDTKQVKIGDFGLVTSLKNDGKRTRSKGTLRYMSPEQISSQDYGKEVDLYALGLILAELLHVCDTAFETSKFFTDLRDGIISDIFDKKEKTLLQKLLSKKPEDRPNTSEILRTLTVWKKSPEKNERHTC
T21 sequence (Q86Y07 whole entry): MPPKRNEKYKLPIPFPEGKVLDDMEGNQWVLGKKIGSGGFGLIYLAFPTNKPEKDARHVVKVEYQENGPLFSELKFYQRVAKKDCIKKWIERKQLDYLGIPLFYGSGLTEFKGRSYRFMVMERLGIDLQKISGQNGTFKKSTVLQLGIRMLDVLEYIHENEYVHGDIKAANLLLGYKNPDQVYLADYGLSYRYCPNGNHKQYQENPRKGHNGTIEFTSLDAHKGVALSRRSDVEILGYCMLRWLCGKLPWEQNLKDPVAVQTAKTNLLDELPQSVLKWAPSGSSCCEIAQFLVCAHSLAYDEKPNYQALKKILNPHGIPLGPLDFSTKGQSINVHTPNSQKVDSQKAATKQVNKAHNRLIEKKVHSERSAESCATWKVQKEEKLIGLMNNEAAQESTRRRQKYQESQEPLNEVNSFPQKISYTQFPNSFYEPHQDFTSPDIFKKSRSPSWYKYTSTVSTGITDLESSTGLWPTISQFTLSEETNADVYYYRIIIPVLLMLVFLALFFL
T8 sequence (P57059 whole entry): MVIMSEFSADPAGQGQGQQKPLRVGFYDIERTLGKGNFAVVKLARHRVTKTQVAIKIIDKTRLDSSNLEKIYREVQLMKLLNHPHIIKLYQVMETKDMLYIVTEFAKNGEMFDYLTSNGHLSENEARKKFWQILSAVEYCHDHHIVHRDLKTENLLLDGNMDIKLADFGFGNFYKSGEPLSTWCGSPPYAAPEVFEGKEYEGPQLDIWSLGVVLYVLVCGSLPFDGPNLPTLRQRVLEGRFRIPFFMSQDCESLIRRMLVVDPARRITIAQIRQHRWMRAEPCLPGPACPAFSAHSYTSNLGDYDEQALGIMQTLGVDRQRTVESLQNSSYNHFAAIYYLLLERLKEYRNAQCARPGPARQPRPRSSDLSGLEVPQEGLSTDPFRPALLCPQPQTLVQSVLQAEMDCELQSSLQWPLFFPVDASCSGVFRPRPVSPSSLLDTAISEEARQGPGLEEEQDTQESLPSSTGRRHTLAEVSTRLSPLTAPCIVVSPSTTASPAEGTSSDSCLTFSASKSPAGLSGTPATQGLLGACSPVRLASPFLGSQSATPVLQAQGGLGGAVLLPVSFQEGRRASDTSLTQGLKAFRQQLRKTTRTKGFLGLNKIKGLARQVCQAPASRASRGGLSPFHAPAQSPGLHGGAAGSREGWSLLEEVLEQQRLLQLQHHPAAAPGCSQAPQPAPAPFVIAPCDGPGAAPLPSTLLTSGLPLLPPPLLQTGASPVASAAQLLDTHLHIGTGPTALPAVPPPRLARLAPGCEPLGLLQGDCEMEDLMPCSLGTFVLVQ
T25 sequence (P27037 20-513): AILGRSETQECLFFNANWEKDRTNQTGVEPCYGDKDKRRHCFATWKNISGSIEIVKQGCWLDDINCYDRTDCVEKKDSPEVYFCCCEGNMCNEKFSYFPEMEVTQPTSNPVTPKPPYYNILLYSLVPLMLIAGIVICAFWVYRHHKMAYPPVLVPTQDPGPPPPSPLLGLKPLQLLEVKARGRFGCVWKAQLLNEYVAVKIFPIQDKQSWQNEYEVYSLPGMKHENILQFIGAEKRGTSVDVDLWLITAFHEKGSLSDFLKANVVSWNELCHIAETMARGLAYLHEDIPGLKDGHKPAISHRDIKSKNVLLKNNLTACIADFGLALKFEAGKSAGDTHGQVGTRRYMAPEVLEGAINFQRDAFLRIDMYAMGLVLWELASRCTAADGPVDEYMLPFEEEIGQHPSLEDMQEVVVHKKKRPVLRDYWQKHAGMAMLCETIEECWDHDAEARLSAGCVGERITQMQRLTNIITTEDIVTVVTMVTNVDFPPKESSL
T15 sequence (P15056 whole entry): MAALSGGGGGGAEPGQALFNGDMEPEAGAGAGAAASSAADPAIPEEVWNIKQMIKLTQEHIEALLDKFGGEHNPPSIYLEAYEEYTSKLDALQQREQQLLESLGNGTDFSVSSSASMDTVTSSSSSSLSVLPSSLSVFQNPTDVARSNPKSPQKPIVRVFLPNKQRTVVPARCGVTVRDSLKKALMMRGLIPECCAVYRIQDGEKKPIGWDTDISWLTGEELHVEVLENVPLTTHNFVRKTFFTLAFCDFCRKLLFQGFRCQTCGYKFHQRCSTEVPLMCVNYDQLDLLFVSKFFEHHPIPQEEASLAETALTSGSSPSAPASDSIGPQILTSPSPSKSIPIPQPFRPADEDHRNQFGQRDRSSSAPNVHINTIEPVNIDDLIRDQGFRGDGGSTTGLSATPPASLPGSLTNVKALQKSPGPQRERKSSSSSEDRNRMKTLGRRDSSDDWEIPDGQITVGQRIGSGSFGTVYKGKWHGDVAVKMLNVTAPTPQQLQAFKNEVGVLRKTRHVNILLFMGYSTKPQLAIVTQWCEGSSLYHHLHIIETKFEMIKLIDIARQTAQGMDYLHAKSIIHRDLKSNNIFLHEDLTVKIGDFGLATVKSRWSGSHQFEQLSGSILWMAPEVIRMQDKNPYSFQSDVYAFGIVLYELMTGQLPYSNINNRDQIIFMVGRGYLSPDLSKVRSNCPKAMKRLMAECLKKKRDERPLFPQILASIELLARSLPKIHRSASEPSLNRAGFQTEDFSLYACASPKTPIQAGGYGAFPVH
T14 sequence (O94921 whole entry): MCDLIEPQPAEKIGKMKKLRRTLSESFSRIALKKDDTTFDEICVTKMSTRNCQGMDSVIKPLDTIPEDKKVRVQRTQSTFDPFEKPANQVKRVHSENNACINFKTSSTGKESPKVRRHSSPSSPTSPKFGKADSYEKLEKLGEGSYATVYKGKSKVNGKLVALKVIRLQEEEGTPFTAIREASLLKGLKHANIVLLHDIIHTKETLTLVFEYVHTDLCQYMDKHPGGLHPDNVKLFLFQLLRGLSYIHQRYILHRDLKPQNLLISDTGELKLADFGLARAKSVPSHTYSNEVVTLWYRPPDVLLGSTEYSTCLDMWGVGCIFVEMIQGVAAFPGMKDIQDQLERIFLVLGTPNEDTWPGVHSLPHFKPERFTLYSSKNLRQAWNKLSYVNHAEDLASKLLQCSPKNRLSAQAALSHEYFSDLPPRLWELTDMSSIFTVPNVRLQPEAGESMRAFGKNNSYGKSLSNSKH
T14 sequence (Q8ND76 whole entry partner): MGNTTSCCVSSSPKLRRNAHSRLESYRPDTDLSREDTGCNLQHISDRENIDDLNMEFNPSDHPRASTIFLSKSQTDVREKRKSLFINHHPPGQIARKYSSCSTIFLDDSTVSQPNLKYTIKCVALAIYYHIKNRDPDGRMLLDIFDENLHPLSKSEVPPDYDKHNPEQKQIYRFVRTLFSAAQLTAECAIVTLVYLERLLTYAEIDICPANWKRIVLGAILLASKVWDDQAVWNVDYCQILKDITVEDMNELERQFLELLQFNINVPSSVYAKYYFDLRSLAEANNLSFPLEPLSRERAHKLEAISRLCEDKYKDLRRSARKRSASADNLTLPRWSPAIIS
Sequence of EPHA6 (Q9UF33 23-1036): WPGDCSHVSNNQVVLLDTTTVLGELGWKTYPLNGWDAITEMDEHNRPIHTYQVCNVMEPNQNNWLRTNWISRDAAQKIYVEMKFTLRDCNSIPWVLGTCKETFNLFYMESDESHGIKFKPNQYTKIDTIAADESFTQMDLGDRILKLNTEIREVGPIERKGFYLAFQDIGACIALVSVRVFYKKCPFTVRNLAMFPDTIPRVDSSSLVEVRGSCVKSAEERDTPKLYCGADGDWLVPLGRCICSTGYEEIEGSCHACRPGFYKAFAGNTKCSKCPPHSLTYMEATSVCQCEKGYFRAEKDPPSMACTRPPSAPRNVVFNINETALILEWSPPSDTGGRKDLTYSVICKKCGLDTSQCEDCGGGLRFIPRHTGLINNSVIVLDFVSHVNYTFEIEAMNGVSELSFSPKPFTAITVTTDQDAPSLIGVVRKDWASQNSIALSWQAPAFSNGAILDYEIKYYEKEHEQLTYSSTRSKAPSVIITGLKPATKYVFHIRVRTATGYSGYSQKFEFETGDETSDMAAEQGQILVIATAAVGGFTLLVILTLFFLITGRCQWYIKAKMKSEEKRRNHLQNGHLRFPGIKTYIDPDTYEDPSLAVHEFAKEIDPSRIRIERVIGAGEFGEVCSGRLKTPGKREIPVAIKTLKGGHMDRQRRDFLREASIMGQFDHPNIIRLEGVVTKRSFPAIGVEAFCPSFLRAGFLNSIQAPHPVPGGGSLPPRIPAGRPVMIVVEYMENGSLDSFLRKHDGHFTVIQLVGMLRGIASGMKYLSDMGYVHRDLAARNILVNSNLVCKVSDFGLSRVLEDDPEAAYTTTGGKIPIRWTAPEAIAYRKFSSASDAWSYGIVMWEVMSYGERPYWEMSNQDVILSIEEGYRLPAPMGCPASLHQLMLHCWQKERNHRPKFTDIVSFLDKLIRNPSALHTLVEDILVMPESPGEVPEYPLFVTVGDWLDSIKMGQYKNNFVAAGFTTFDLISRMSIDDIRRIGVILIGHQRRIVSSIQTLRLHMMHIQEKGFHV

`COc1ccc2[nH]c3c(=O)[nH]c4ccc(O)cc4c3c2c1` [Compound 55, 2-Hydroxy-10-methoxy-5,7-dihydro-6H-indolo[2,3-c]quinolin-6-one] showed an inhibition at 1 µM (RAF1 (cRAF) Y340D Y341D) of 4%, an inhibition at 1 µM (CASK) of -3% and an inhibition at 1 µM (TTK) of 42%. The inhibition at 1 µM (CDK2/cyclin A1) was 43%, the inhibition at 1 µM (ALK L1196M) was 15% and the inhibition at 1 µM (KIT Y823D) was 30%. It also gave an inhibition at 1 µM (ALK T1151_L1152insT) of 32%, an inhibition at 1 µM (SIK1) of 19% and an inhibition at 1 µM (CDK11 (Inactive)) of 13%. The inhibition at 1 µM (EIF2AK2 (PKR)) was 74%, the inhibition at 1 µM (CDK9 (Inactive)) was 59% and the inhibition at 1 µM (STK32B (YANK2)) was 7%. For the same compound, the inhibition at 1 µM (HUNK) was 20%, the inhibition at 1 µM (PKMYT1) was 14% and the inhibition at 1 µM (TLK1) was 68%. It also gave an inhibition at 1 µM (ICK) of 57%, an inhibition at 1 µM (EPHA6) of 21% and an inhibition at 1 µM (PLK4) of 50%. It also gave an inhibition at 1 µM (ALK C1156Y) of 34%, an inhibition at 1 µM (CDK2/cyclin O) of 61% and an inhibition at 1 µM (NEK8) of 16%. It also gave an inhibition at 1 µM (STK38 (NDR)) of 12%, an inhibition at 1 µM (CDK14 (PFTK1)/cyclin Y) of 35% and an inhibition at 1 µM (BRAF) of 6%. For the same compound, the inhibition at 1 µM (KIT N822K) was 45%, the inhibition at 1 µM (ALK R1275Q) was 23% and the inhibition at 1 µM (STK38L (NDR2)) was 8%. For the same compound, the inhibition at 1 µM (TGFBR2) was 102%, the inhibition at 1 µM (STK17A (DRAK1)) was 95% and the inhibition at 1 µM (VRK2) was 54%. For the same compound, the inhibition at 1 µM (MKNK2 (MNK2)) was 19%, the inhibition at 1 µM (ACVR1 (ALK2)) was 15% and the inhibition at 1 µM (DDR2 T654M) was 73%. The inhibition at 1 µM (ABL1 M351T) was 60%, the inhibition at 1 µM (KIT V559D T670I) was 32% and the inhibition at 1 µM (ACVR2A) was 8%. The inhibition at 1 µM (MLK4) was 18%, the Percentage of inhibition (FLT3 ITD) was 97% and the inhibition at 1 µM (PRKACB (PRKAC beta)) was 35%. It also gave an inhibition at 1 µM (DYRK2) of 97%.
